One data set relates to Glioblastoma U-251 cell. In words: Cell proliferation inhibition, U-251 (CellTiter-Glo). Type of data set: cell-based. The conditions noted are these: Homo sapiens, U-251, incubated for 12 days (read after 8 or 12 days). The text has this:
Materials and Cell Lines: Z-138, U251, and MIA PaCa2 cells were purchased from ATCC (American Type Culture Collection, Manassas, Va.) and Chinese Academy of Science (Shanghai, China). Iscove's Modified Dulbecco's Medium (IMDM), Dulbecco's Modified Eagle Medium (DMEM), penicillin-streptomycin, heat inactivated fetal bovine serum (FBS), and horse serum was purchased from ThermoFisher, Waltham, Mass., USA. Corning 96- and 384-well cell culture plates were purchased from ThermoFisher, Waltham, Mass., USA. Cell-Titer Glo® was purchased from Promega Corporation, Madison, Wis., USA.
In order to evaluate the inhibitory ability of compounds synthesized on the proliferation of the Glioblastoma U-251 cell, exponentially growing cells were seeded in the cell culture media of DMEM with 10% FBS and 1% penicillin-streptomycin at a concentration of 10000 cells/ml in a 384-well plate with 20 ul per well and incubated overnight at 37° C., 5% CO2 incubator. Compounds were prepared as 10-point, 3-fold serial dilutions in DMSO, beginning at 6 mM. 1 μl of DMSO solutions from the compound stock plates were added to 99 ul of cell culture media (final top concentration of compound in the assay was 30 uM and the final concentration of DMSO was 0.5%). 20 μL of compound solutions in media were added to each well of U-251 cell plates. After adding compound solutions, assay plates were incubated for 12 days at 37° C., 5% CO2. During this incubation period, cell culture media with freshly dissolved testing compounds was changed every 4 days. After removing old media from cell plates, 40 ul of media with testing compounds dissolved, which were prepared by adding 1 ul of compound DMSO serial solutions to 199 ul of cell media, were added to the assay plates with the same layout as they were initially prepared. After 8 or 12 days, cell viability was measured using the CellTiter-Glo assay kit from Promega (Madison, Wis., USA) by quantitating the ATP present in the cell cultures. 20 μL of CellTiter-Glo reagent was added to each well of the cell plates. Luminescence was read after 10 minute of incubation with the Envision multiple plate reader from PerkinElmer (Waltham, Mass., USA). The concentrations of compounds inhibiting cell viability by 50% (IC50 values) were determined using a sigmoidal dose-response model (variable slopes, four parameters) in Prism 7 (La Jolla, Calif., USA).

Another data set deals with BT474. Nature of the data set: Breast cancer panel proliferation inhibition, BT474. In kind it is cell-based. The conditions noted are these: Homo sapiens. On the procedure:
(§1) Inhibitory ability of compounds synthesized on the proliferation of three panels of cancer cell lines, including 5 breast cancer, 6 liver cancer, and 3 lung cancer cell lines were evaluated. Exponentially growing cells were seeded in the media of choice at various cell densities in 384-well plates with 20 ul per well and incubated overnight at 37° C., 5% CO2 incubator. Compounds were prepared as 10-point, 3-fold serial dilutions in DMSO, beginning at 6 mM. 1 μl of DMSO solutions from the compound stock plates were added to 99 ul of cell media (final top concentration of compound in the assay was 30 uM and the final concentration of DMSO was 0.5%). 20 μL of compound solutions in media were added to each well of plates with cells seeded. After adding compound solutions, assay plates were incubated for 8 and 12 days, respectively, at 37° C., 5% CO2. During this incubation period, cell media was changed every 4 days. After removing old media from cell plates, 40 ul of media with testing compounds dissolved, which were prepared by adding 1 ul of compound DMSO serial solutions to 199 ul of cell media, were added to the assay plates with the same layout as they were initially prepared. After 8 or 12 days, cell viability was measured using the CellTiter-Glo assay kit from Promega (Madison, Wis., USA) by quantitating the ATP present in the cell cultures. 20 μL of CellTiter-Glo reagent was added to each well of the cell plates. Luminescence was read after 10 minute of incubation with the Envision multiple plate reader from PerkinElmer (Waltham, Mass., USA). The concentrations of compounds inhibiting cell viability by 50% (IC50 values) were determined using a sigmoidal dose-response model (variable slopes, four parameters) in Prism 7 (La Jolla, Calif., USA).

In the next data set the test system is MDA-MB-231. In words: Breast cancer panel proliferation inhibition, MDA-MB-231. In kind it is cell-based. The conditions noted are these: Homo sapiens. On the procedure: as §1
A further data set deals with Huh1. In words: Liver cancer panel proliferation inhibition, Huh1. Type of data set: cell-based. The conditions noted are these: Homo sapiens. On the procedure:
as §1

The subject of another data set is HCC827. In words: Lung cancer panel proliferation inhibition, HCC827. Type of data set: cell-based. The conditions noted are these: Homo sapiens. On the procedure:
as §1

Data set [1] can be described thus: Pharmacokinetic study in mouse. Type of data set: in vivo, Male CD-1 mice. The following applies: male, CD-1, plasma; for plasma clearance / Vd: 2 mg/kg, Mouse PK (IV) 2 mpk; for plasma clearance: read-out: Clint (converted); for Vd: read-out: Vss; for AUC(0-t) / Cmax / Tmax / bioavailability / half-life: 10 mg/kg, Mouse PK (PO) 10 mpk; for half-life: read-out: T½ (converted). On the procedure: Male CD-1 mice (16-24 g; 6-8 weeks; purchased from Shanghai SLAC laboratory animal CO. LTD; n=18, with 3 per time point) were treated with a single dose of compounds being tested at 2 mg/kg by intravenous tail-vein injection and 10 mg/kg by oral gavage administration, with both doses formulated in 20% N,N-dimethylacetamide in water. Animals upon PO administration were fasted overnight and fed 4 hours after dosing. Animals upon IV administration were free access to food and water. The study was performed in accordance with the guidelines and standards of the Association for Assessment and Accreditation of Laboratory Animal Care (AAALAC International) and the National Institutes of Health.
The animals were anesthetized via isoflurane at the designated time points, and approximately 110 μL of blood sample was collected via retro-orbital puncture or cardiac puncture for stagger bleeding under the anesthesia with Isoflurane inhalation into EDTA-2K tubes. The blood samples were maintained in wet ice first and centrifuged to obtain plasma (2000 g, 4° C., 5 min) within 15 minutes post sampling. Plasma samples were stored at approximately −70° C. until analysis. For plasma samples not diluted, an aliquot of 20 μL sample was added with 200 μL IS (Propranolol, 100 ng/mL) in ACN. The mixture was vortexed for 10 min and centrifuged at 5800 rpm for 10 min. An aliquot of 0.5 μL supernatant was injected for LC-MS/MS analysis. For 10-fold diluted plasma samples, an aliquot of 2 μL sample was added with 18 μL blank diluted plasma, the dilution factor was 10. The followed operation was the same as no diluted plasma samples. Standard calibration curves were constructed by analyzing a series of control plasma aliquots containing Propranolol (100 ng/mL) as an internal standard and 1.0-3,000 ng/mL testing compounds. Compound concentrations were determine with UPLC-MS/MS-33 (Triple Quad™ 6500 Plus).

Where [2] appears, read: BT-474, 192 h, BT474, 8 days, read-out: IC50 (μM) 8 days.
[3] abbreviates: BT-474, 288 h, BT474, 12 days, read-out: IC50 (μM) 12 days.
The mark [4] stands for this setting: 192 h, MDA-MB-231, 8 days, read-out: IC50 (μM) 8 days.
[5] abbreviates: 288 h, MDA-MB-231, 12 days, read-out: IC50 (μM) 12 days.
Setting [6] is: HuH-1, 192 h, Huh1, 8 days, read-out: IC50 (μM) 8 days.
The mark [7] stands for this setting: HuH-1, 288 h, Huh1, 12 days, read-out: IC50 (μM) 12 days.
[8] abbreviates: 192 h, HCC827, 8 days, read-out: IC50 (μM) 8 days.
The mark [9] stands for this setting: 288 h, HCC827, 12 days, read-out: IC50 (μM) 12 days.

Where two headings read alike, the source gives them in different places.

For `CC(=O)N1CCC(Nc2ccc3c(c2)C(=O)N(C[C@H](O)CN2CCc4ccccc4C2)CC3)CC1` [Compound 24a, (R)-7-((1-acetylpiperidin-4-yl)amino)-2-(3-(3,4-dihydroisoquinolin-2(1H)-yl)-2-hydroxypropyl)-3,4-dihydroisoquinolin-1(2H)-one], the IC50 came out at 0.097 µM in the data set on Glioblastoma U-251 cell; 0.11 µM with BT474 (setting [2]); 0.057 µM in the data set on BT474 (setting [3]); 0.49 µM in the data set on MDA-MB-231 (setting [4]); 0.075 µM with MDA-MB-231 (setting [5]); 0.44 µM in the data set on Huh1 (setting [6]). Moreover, the IC50 is 0.041 µM in the data set with Huh1 (setting [7]), 0.19 µM in the data set on HCC827 (setting [8]) and 0.11 µM with HCC827 (setting [9]). Besides, in data set [1], the plasma clearance was 35.7 mL/min/kg. Moreover, the Vd in data set [1] was determined as 2.48 L/kg. In addition, in data set [1], the AUC(0-t) amounted to 3410 ng·h/mL. In data set [1], the Cmax was 3580 ng/mL. In addition, in data set [1], the Tmax came to 0.25 h. The bioavailability in data set [1] was found to be 73.3%. In addition, the half-life in data set [1] is 1.22 h.
Consider `CC(=O)N1CCC(Nc2ccc3c(c2)C(=O)N(C[C@H](O)CN2CCc4ccccc4C2)CCO3)CC1` [Compound 52a, (R)-7-((1-acetylpiperidin-4-yl)amino)-4-(3-(3,4-dihydroisoquinolin-2(1H)-yl)-2-hydroxypropyl)-3,4-dihydrobenzo[f][1,4]oxazepin-5(2H)-one], for which the IC50 came to 0.293 µM in the data set on Glioblastoma U-251 cell; 0.041 µM in the data set with BT474 (setting [2]); 0.03 µM in the data set with BT474 (setting [3]); 0.17 µM in the data set on MDA-MB-231 (setting [4]); 0.064 µM in the data set on MDA-MB-231 (setting [5]); 0.54 µM in the data set on Huh1 (setting [6]). Moreover, the concentration for half-maximal inhibition (IC50) in the data set on Huh1 (setting [7]) came out at 0.075 µM; in the data set with HCC827 (setting [8]), 0.16 µM; in the data set with HCC827 (setting [9]), 0.089 µM. In addition, the plasma clearance in data set [1] was 50.7 mL/min/kg. In data set [1], the Vd worked out at 2.25 L/kg. The AUC(0-t) in data set [1] worked out at 2720 ng·h/mL. The Cmax in data set [1] came to 3080 ng/mL. Further, the Tmax in data set [1] came out at 0.25 h. Besides, in data set [1], the bioavailability was found to be 83%. Moreover, the half-life in data set [1] was 2.86 h.
For the molecule `CC(=O)N1CCC(Nc2cc(C(=O)NC[C@H](O)CN3CCc4ccccc4C3)ncn2)CC1` [Compound C3, reference compound], the IC50 with Glioblastoma U-251 cell came to 0.17 µM; in the data set on BT474 (setting [2]) it was 0.14 µM; in the data set on BT474 (setting [3]), 0.056 µM; in the data set on MDA-MB-231 (setting [4]), 0.7 µM; in the data set with MDA-MB-231 (setting [5]), 0.096 µM; in the data set on Huh1 (setting [6]) it was 1.92 µM. Moreover, the values for the IC50 with Huh1 (setting [7]), with HCC827 (setting [8]) and with HCC827 (setting [9]) were 0.085 µM, 0.34 µM and 0.5 µM, respectively. For the same molecule, the plasma clearance in data set [1] is 44.7 mL/min/kg. In addition, in data set [1], the Vd was 1.48 L/kg. The AUC(0-t) in data set [1] amounted to 2420 ng·h/mL. The same molecule returned a Cmax in data set [1] of 761 ng/mL. Further, in data set [1], the Tmax was 2 h. In data set [1], this molecule gave a bioavailability of 64.9%. Besides, the half-life in data set [1] was 0.798 h.
